We go through twelve compounds from ChEMBL document CHEMBL1201862, “PubChem BioAssay data set” (2004).

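Dose response: 5 concentrations. Exposure: 48 h. Format: 96-well plates. Endpoint: linear interpolation; highest concentration if not reached. GI50 marks 50% less growth.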 Activity calls are given as the source filed them. Cut-off read from the data, not from the text of the source: active = GI50 up to about 1.1 µM and inactive = higher.

Test systems include RXF 393; HL-60; UACC-62; HOP-92; MDA-N; OVCAR-3; SNB-75; HOP-62; KM12; 786-0; UACC-257; LOX IMVI; CCRF-CEM; T47D; SF-268; NCI-H460; COLO 205; EKVX; SF-539.
What all share (experiment): inhibition of tumour cell growth, NCI panel, 48 h

With `CC(C)C(=O)C(C)(C)CCc1ccccn1`, the GI50 in the test with RXF 393, in the test with HL-60, in the test on UACC-62, in the test with HOP-92, in the test on MDA-N and with OVCAR-3 was > 100 µM (inactive) each time. Besides, the GI50 in the test on SNB-75, in the test on HOP-62, in the test on KM12, in the test on 786-0, with UACC-257 and in the test on LOX IMVI was > 100 µM (inactive) each time. Moreover, the GI50 in the test with CCRF-CEM, with T47D, in the test with SF-268, in the test on NCI-H460, in the test on COLO 205 and in the test with EKVX was > 100 µM (inactive) throughout.

Regarding `O=C(Nc1ccc2nc(-c3ccccc3)cn2c1)Oc1ccccc1`, the GI50 in the test on RXF 393 is 0.893 µM (active); with HL-60 it was 30.9 µM (inactive); in the test with UACC-62, 37.9 µM (inactive); with HOP-92, > 100 µM (inactive); in the test on MDA-N, 14 µM (inactive); with OVCAR-3, 38.6 µM (inactive). In addition, the GI50 with SNB-75 was 2.99 µM (inactive); in the test on HOP-62 it was > 100 µM (inactive); in the test on KM12, 24.9 µM (inactive); in the test on 786-0 it was 91 µM (inactive); with UACC-257, 36.1 µM (inactive); with LOX IMVI it was 52 µM (inactive). Further, the GI50 with CCRF-CEM was 39.7 µM (inactive); with T47D, 19.1 µM (inactive); in the test with SF-268, > 100 µM (inactive); in the test with NCI-H460 it was 33.1 µM (inactive); with COLO 205, 48.6 µM (inactive); in the test with EKVX, 80 µM (inactive).

Turning to `COc1cc2c(cc1OC)C(=O)N(c1ccc(OCCN3CCCC3)cc1)C2=O`, the GI50 in the test on RXF 393, in the test on HL-60, in the test on UACC-62, with SF-539, with HOP-92 and with MDA-N was > 100 µM (inactive) each time. The GI50 in the test on OVCAR-3, in the test with HOP-62, in the test with KM12, in the test with 786-0, with UACC-257 and with LOX IMVI was > 100 µM (inactive) each time. Further, the GI50 in the test on CCRF-CEM, in the test on T47D, in the test with SF-268, in the test on NCI-H460, in the test on COLO 205 and with EKVX was > 100 µM (inactive) each time.

In the case of `C=CCN1CC2CN=NC2(C#N)C1` (centres undefined), the GI50 in the test with RXF 393 was > 100 µM (inactive); in the test on HL-60 it was > 100 µM (inactive); with UACC-62 it was > 100 µM (inactive); in the test on HOP-92, 2.33 µM (inactive); with MDA-N, > 100 µM (inactive); with OVCAR-3, > 100 µM (inactive). The GI50 in the test with SNB-75, in the test with HOP-62, in the test on KM12, with 786-0, in the test on UACC-257 and with LOX IMVI was > 100 µM (inactive) throughout. Besides, the GI50 in the test with CCRF-CEM, in the test on T47D, in the test on SF-268, with NCI-H460, in the test with COLO 205 and in the test with EKVX was > 100 µM (inactive) in each case.

For `CC(C)NC(=O)OCc1c(COC(=O)NC(C)C)n(C)c2c1ccc1cc(Cl)c(Cl)cc12`, the GI50 with RXF 393 is 12.2 µM (inactive); in the test with UACC-62 it was 12 µM (inactive); in the test with SF-539, 13.5 µM (inactive); in the test with HOP-92, 11.4 µM (inactive); in the test on MDA-N, 13.6 µM (inactive); with OVCAR-3 it was 16.6 µM (inactive). Moreover, the GI50 with SNB-75 was 13.4 µM (inactive); in the test with HOP-62 it was 14.7 µM (inactive); with 786-0, 7.5 µM (inactive); in the test with UACC-257, 15.7 µM (inactive); with LOX IMVI it was 9.23 µM (inactive); in the test with CCRF-CEM, 3.33 µM (inactive). Besides, the GI50 is 5.82 µM (inactive) in the test with T47D; 13.8 µM (inactive) in the test with SF-268; 3.41 µM (inactive) with NCI-H460; 10.9 µM (inactive) in the test with COLO 205; 14.8 µM (inactive) with EKVX.

Turning to `N=C1C=C(N)C(=O)c2[nH]c(=O)ccc21`, the GI50 with RXF 393 was 1.87 µM (inactive); with HL-60, 2.63 µM (inactive); with UACC-62 it was 2.3 µM (inactive); in the test on SF-539 it was 2.21 µM (inactive); with HOP-92 it was 2.11 µM (inactive); in the test on MDA-N, 1.01 µM (active). Besides, the GI50 in the test with OVCAR-3 is 1.54 µM (inactive); in the test on HOP-62, 1.92 µM (inactive); in the test on KM12, 1.82 µM (inactive); in the test with 786-0 it was 1.91 µM (inactive); in the test with UACC-257, 5.07 µM (inactive); with LOX IMVI it was 2 µM (inactive). The GI50 was 2.36 µM (inactive) in the test with CCRF-CEM; 1.76 µM (inactive) in the test on T47D; 2.04 µM (inactive) with SF-268; 2.92 µM (inactive) with NCI-H460; 1.73 µM (inactive) in the test with COLO 205; 1.92 µM (inactive) in the test on EKVX.

In the case of `c1cc(-c2cnc(-c3ccc4c(c3)CCCO4)o2)ccn1`, the GI50 in the test on RXF 393 is 13.5 µM (inactive); in the test on HL-60 it was 4.33 µM (inactive); with UACC-62 it was 17.1 µM (inactive); in the test on SF-539, 9.1 µM (inactive); in the test with HOP-92, 22.9 µM (inactive); in the test on MDA-N it was 14.7 µM (inactive). The GI50 in the test on OVCAR-3 is 16.4 µM (inactive); with SNB-75 it was 12.2 µM (inactive); in the test with HOP-62, 16.5 µM (inactive); with 786-0, 19.5 µM (inactive); with UACC-257, 15.1 µM (inactive); in the test with LOX IMVI, 13.6 µM (inactive). Moreover, the GI50 in the test with CCRF-CEM is 5.98 µM (inactive); with T47D, 16.6 µM (inactive); in the test on SF-268, 15.6 µM (inactive); in the test on COLO 205, 18.5 µM (inactive); in the test with EKVX, 17.7 µM (inactive).

`N=c1oc2ccc3ccccc3c2cc1-c1nc(O)c2ccccc2n1`: the GI50 in the test on RXF 393 was 10.6 µM (inactive); in the test with HL-60 it was 8.73 µM (inactive); in the test with UACC-62, 12.8 µM (inactive); in the test on SF-539, 31.2 µM (inactive); in the test on HOP-92, 15.1 µM (inactive); in the test with MDA-N, 46.2 µM (inactive). Further, the GI50 was 2.44 µM (inactive) with SNB-75; 15.8 µM (inactive) in the test with HOP-62; 11 µM (inactive) in the test with KM12; 24.3 µM (inactive) with 786-0; 42.5 µM (inactive) in the test with UACC-257; 38.5 µM (inactive) in the test on LOX IMVI. For the same compound, the GI50 is 30.7 µM (inactive) in the test with T47D; 30.8 µM (inactive) in the test on SF-268; 32.8 µM (inactive) in the test on NCI-H460; > 100 µM (inactive) in the test on COLO 205; 19.5 µM (inactive) in the test with EKVX.

In the case of `Cc1sc2nc3n(c(=O)c2c1C)N=CN(c1ccccc1)C3`, the GI50 in the test on RXF 393 is 37.1 µM (inactive); with UACC-62, > 100 µM (inactive); in the test with HOP-92, 23.7 µM (inactive); in the test on MDA-N, > 100 µM (inactive); with OVCAR-3, 19.4 µM (inactive); in the test on SNB-75, 35.9 µM (inactive). Also, the GI50 in the test with HOP-62 is 20.4 µM (inactive); in the test on KM12, > 100 µM (inactive); with 786-0 it was 15.8 µM (inactive); in the test on UACC-257 it was > 100 µM (inactive); with LOX IMVI, > 100 µM (inactive); in the test on CCRF-CEM, > 100 µM (inactive). The GI50 was 79.8 µM (inactive) in the test with T47D; 23.4 µM (inactive) in the test with SF-268; > 100 µM (inactive) with NCI-H460; > 100 µM (inactive) in the test with COLO 205; > 100 µM (inactive) in the test with EKVX.

In the case of `O=C(O)CC(C(=O)O)c1ccccc1[N+](=O)[O-]` (centres undefined), the GI50 in the test on RXF 393, with HL-60, in the test on UACC-62, with HOP-92, in the test with MDA-N and in the test with OVCAR-3 was > 100 µM (inactive) in each case. Also, the GI50 in the test with SNB-75, in the test with HOP-62, in the test on KM12, with 786-0, in the test on UACC-257 and in the test on LOX IMVI was > 100 µM (inactive) throughout. Moreover, the GI50 in the test with CCRF-CEM, with T47D, in the test with SF-268, with NCI-H460, in the test with COLO 205 and in the test with EKVX was > 100 µM (inactive) throughout.

In the case of `c1ccc2nc(CCC3CCCCN3)ccc2c1` (centres undefined), the GI50 in the test on RXF 393 was > 100 µM (inactive); in the test on HL-60, 67.9 µM (inactive); in the test on UACC-62 it was > 100 µM (inactive); in the test with HOP-92 it was > 100 µM (inactive); in the test with MDA-N, 87.7 µM (inactive); in the test on SNB-75, 92.3 µM (inactive). Also, the GI50 is 85.5 µM (inactive) in the test on HOP-62; > 100 µM (inactive) in the test with KM12; > 100 µM (inactive) in the test with 786-0; 42.7 µM (inactive) in the test on UACC-257; > 100 µM (inactive) with LOX IMVI; 83.2 µM (inactive) in the test on CCRF-CEM. In addition, the GI50 was 54.5 µM (inactive) in the test with T47D; > 100 µM (inactive) with SF-268; 87.9 µM (inactive) in the test on NCI-H460; 16.7 µM (inactive) in the test on COLO 205; 42.2 µM (inactive) with EKVX.

On to `CCn1c2ccccc2c2cc(Nc3cc(C)[nH]c(=O)n3)ccc21`, for which the GI50 with RXF 393 was > 100 µM (inactive); in the test on HL-60, 0.255 µM (active); in the test on UACC-62 it was 0.349 µM (active); with SF-539, > 100 µM (inactive); in the test on HOP-92, > 100 µM (inactive); in the test on MDA-N, 0.394 µM (active). Moreover, the GI50 with OVCAR-3 is > 100 µM (inactive); in the test on HOP-62, > 100 µM (inactive); in the test on KM12 it was 5.7 µM (inactive); in the test on 786-0 it was > 100 µM (inactive); with UACC-257 it was > 100 µM (inactive); with T47D, > 100 µM (inactive). Also, the GI50 in the test with SF-268, in the test on NCI-H460, with COLO 205 and in the test on EKVX was > 100 µM (inactive) each time.
